Our source for the inhibition, EC50 and IC50 values is US20230147257A1 (DONG-A ST CO., LTD., priority 2020, published 2023).

What all share (format): cell-based
Test [1] concerns the target T1, AhR (Homo sapiens, UniProt P35869).
T1 construct: host or cells: HepG2
T1 sequence (P35869 11-848): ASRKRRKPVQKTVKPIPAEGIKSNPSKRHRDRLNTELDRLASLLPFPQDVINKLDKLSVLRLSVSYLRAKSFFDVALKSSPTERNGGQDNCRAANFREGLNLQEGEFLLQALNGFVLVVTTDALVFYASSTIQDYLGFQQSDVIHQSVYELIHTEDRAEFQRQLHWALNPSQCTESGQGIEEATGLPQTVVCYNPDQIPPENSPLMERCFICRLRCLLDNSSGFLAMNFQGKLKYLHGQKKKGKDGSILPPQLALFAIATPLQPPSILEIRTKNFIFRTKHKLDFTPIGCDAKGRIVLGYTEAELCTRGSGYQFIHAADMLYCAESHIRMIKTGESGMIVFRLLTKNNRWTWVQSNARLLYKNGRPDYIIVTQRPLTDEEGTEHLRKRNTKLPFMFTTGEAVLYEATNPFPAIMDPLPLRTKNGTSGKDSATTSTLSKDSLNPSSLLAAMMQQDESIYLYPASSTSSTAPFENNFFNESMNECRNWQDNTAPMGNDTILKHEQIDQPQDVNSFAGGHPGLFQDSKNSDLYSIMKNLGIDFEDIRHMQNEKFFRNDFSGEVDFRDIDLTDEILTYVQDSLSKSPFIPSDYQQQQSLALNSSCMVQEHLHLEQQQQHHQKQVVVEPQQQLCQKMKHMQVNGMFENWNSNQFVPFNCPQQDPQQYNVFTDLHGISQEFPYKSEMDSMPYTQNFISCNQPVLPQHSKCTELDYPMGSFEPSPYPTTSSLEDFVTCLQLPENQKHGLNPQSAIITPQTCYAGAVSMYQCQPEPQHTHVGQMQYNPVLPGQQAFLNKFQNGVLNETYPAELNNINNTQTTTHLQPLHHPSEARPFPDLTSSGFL
The test can be described thus: In vitro assay 4: endogenous AhR activity assay (CYP1A1 and CYP1B1 mRNA, qRT-PCR, HepG2 cells). The note with it: TCDD 10 nM with compound 123 nM, 4 hours, mRNA relative to β-actin. As to the method:
In Vitro Assay 4: Endogenous AhR Activity Assay
HepG2 cells were seeded in 12-well plate (3×10^5 cells/well). A day after seeding, the cells were treated with TCDD (10 nM) alone or with compounds (123 nM) for 4 hours. Total RNA was extracted using Trizol (Thermo Fisher Scientific). cDNA synthesis and quantitative RT-PCR (qRT-PCR) assays were performed using PrimeScript™ RT Master Mix (TAKARA) and TB Green™ Premix Ex Taq™ II (TAKARA) in accordance with manufacturer's instruction. For the measurement of endogenous AhR activity, relative mRNA levels of CYP1A1 and CYP1B1 were quantitated relative to β(beta)-actin mRNA by the comparative Ct (ΔΔCt) method. The percent inhibitions were calculated according to: […]

The target of test [2] is T1, AhR. As to the kind of experiment: In vitro assay 3: XRE-luciferase reporter assay, agonism in human cell line (HepG2). The note with it: HepG2 XRE-Luc, tryptophan free medium, test compound alone, 6 hours. From the text:
(§1) In Vitro XRE-Luciferase Reporter Assay (In Vitro Assay 1, 2, 3)
(§2) AhR activation leads the induction of target gene expression such as CYP1A1 and CYP1B1 by AhR binding to AhR-responsive DNA elements also known as xenobiotics responsive elements (XRE). The assay for measuring AhR activity herein is the luciferase assay using cell lines transfected with luciferase reporter plasmid containing XREs at the upstream of the reporter gene. Cells transfected with XRE-luciferase reporter (XRE-Luc) plasmid drive luciferase activity reflecting activation and inhibition of AhR in the cells. In addition to transfection with XRE-reporter vector, cells were co-transfected with Nano-luciferase reporter gene construct (Nano-Luc) containing constitutively active promoter as internal control. Kynurenine (an endogenous AhR agonist) was used to stimulate cells to test antagonistic properties of the compounds. The half-maximal inhibitory concentration (IC50) or half-maximal effective concentration (EC50) value was calculated using nonlinear regression (four parameters) with Prism8.0 software (GraphPad).
In Vitro Assay 3: Agonism in Human Cell Line
HepG2 (human hepatoma cell line) cells co-transfected with XRE-Luc and Nano-Luc plasmids were plated in tryptophan free medium containing 1% of dialyzed fetal bovine serum and incubated overnight at 37° C. in a CO2 incubator. After 24 hours, cells were treated for 6 hours with test compounds or not. Firefly luciferase and Nano-luciferase activity was measured using Nano-glo Luciferase kit (Promega) and relative luciferase activity (Firefly/Nano-Luc) was used to calculate EC50 values. As a positive control, cells were incubated with TCDD. (EC50 Values are grouped as A, B, C and D, whereby A: EC50<0.1 μM; B: 0.1<EC50<1.0 μM; C: 1.0<EC50<10 μM; D: EC50>10 μM)
(In general: A reporter such as luciferase makes a cellular process visible.)

For test [3], the target named is T1, AhR. As to the kind of experiment: In vitro assay 1: XRE-luciferase reporter assay, antagonism in human cell line (HepG2). The note with it: HepG2 XRE-luciferase, 6 hours, read-out: Assay 1: AhR-Luc Human Antagonism (IC50). In short, it runs like this:
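HepG2 cells carrying XRE-firefly luciferase (transient or stable) plus constitutive Nano-Luc control, stimulated 6 h with kynurenine (50 or 200 μM) with or without compound. Firefly/Nano-Luc ratio normalized to kynurenine-alone (maximum) and vehicle (minimum); IC50 by four-parameter nonlinear regression.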

Test [4] deals with T2, AhR (Mus musculus, UniProt P30561).
T2 sequence (P30561 1-848): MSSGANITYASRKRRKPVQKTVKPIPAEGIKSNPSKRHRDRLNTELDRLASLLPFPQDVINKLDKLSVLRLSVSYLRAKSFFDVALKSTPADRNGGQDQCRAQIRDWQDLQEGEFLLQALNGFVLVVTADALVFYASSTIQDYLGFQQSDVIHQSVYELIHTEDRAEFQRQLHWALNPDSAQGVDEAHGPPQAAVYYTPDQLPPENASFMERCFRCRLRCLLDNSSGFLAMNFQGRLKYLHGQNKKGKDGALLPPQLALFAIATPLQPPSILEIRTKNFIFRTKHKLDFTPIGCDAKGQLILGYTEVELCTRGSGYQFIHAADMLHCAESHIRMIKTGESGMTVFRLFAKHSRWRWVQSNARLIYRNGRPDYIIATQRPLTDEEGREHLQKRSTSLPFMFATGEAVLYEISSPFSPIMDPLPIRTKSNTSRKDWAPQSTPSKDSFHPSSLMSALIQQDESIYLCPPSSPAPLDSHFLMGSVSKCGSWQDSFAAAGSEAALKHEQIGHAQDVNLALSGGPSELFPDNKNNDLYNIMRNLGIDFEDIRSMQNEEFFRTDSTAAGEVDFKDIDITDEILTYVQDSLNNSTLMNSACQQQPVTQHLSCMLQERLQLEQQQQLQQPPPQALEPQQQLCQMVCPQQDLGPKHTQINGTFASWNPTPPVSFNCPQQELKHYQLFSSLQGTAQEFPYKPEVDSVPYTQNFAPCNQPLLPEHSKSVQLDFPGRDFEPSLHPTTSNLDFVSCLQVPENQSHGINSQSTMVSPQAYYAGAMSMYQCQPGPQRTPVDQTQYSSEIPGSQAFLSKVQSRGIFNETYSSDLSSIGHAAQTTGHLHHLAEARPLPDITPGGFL
The test can be described thus: In vitro assay 2: XRE-luciferase reporter assay, antagonism in mouse cell line (Hepa1c1c7). The settings on record: Hepa1c1c7 XRE-Luc, cells treated with kynurenine (#), 6 hours.
Source text: as §1, §2
In Vitro Assay 2: Antagonism in Mouse Cell Line
Hepa1c1c7 (murine liver cancer cell line) cells co-transfected with XRE-Luc and Nano-Luc plasmids were plated in complete medium and incubated overnight at 37° C. in a CO2 incubator. Following incubation, cells were treated with AhR activating ligands such as kynurenic acid, kynurenine(#) with or without test compounds for 6 hours. Firefly luciferase and Nano-luciferase activity was measured using Nano-glo Luciferase kit (Promega) and relative luciferase activity (Firefly/Nano-Luc) was used to calculate IC50 values. The relative luciferase activity was further normalized with agonists alone group as the maximum control and the vehicle group as the minimum control. (IC50 Values are grouped as A, B, C and D, whereby A: IC50<0.01 μM; B: 0.01<IC50<0.1 μM; C: 0.1<IC50<1.0 μM; D: IC50>1.0 μM)

Setting [5] is: read-out: CYP1A1 (% Inhibition).
[6] abbreviates: read-out: Assay 3: AhR-Luc Human Agonism (EC50).
The mark [7] stands for this setting: read-out: Assay 3: AhR-Luc Human Agonism (EC50, nM), class in brackets.
Setting [8] is: cells treated with kynurenine 200 μM (no *).
The mark [9] stands for this setting: read-out: CYP1B1 (% Inhibition).
[10] abbreviates: cells treated with kynurenine 50 μM (*).

Like-named read-outs stand apart in the source and are kept apart here. Some results are limits rather than exact numbers.

What is called inhibition is the drop in the measured response relative to a control, in per cent. By EC50 is commonly meant the concentration giving half of the maximal effect. One may read the IC50 as the concentration that inhibits the measured activity by half.

On to `CC(=O)NCC(C)n1cnc2c(-c3cccnc3)nc(-c3ccc(Cl)cc3)cc2c1=O` (stereo not drawn) [Example 88, N-(2-(6-(4-chlorophenyl)-4-oxo-8-(pyridin-3-yl)pyrido[3,4-d]pyrimidin-3(4H)-yl)propyl)acetamide], for which, on AhR [1] (setting [5]), the inhibition at 0.123 µM worked out at 99.2%. The EC50 on AhR [2] (setting [6]) is more than 30000 nM; on AhR [2] (setting [7]) it was more than 10000 nM. Further, the half-maximal inhibitory concentration (IC50) at AhR [3] (setting [8]) was less than 10 nM; against AhR [4], 10 to 100 nM.
For the molecule `Cn1cc(-c2nc(-c3ccc(C(F)(F)F)cc3)cc3c(=O)n([C@H]4CCCC[C@H]4O)cnc23)cn1` [Example 17, 3-((1S,2R)-2-hydroxycyclohexyl)-8-(1-methyl-1H-pyrazol-4-yl)-6-(4-(trifluoromethyl)phenyl)pyrido[3,4-d]pyrimidin-4(3H)-one], the figures for the inhibition at 0.123 µM on AhR [1] (setting [5]) and on AhR [1] (setting [9]) were 90.7% and 99.1%, respectively. Further, the 50% inhibitory concentration (IC50) on AhR [3] (setting [8]) is more than 1000 nM.
In the case of `CC(CO)n1cnc2c(-c3cnn(C)c3)nc(-c3ccc(C(F)(F)F)cc3)cc2c1=O` (stereo not drawn) [Example 45, 3-(1-hydroxypropan-2-yl)-8-(1-methyl-1H-pyrazol-4-yl)-6-(4-(trifluoromethyl)phenyl)pyrido[3,4-d]pyrimidin-4(3H)-one], the values for the inhibition at 0.123 µM at AhR [1] (setting [5]) and on AhR [1] (setting [9]) were 99.6% and 100%, respectively. In addition, the EC50 at AhR [2] (setting [6]) was 0.0428 nM. In addition, the IC50 on AhR [3] (setting [10]) is less than 10 nM.
With `CC(C)(O)Cn1cnc2c(-c3cccnc3)nc(-c3ccc(Cl)cc3)cc2c1=O` [Example 38, 6-(4-chlorophenyl)-3-(2-hydroxy-2-methylpropyl)-8-(pyridin-3-yl)pyrido[3,4-d]pyrimidin-4(3H)-one], the inhibition at 0.123 µM at AhR [1] (setting [5]) was determined as 100%. The EC50 at AhR [2] (setting [6]) came to 1670 nM. Moreover, on AhR [3] (setting [8]), the IC50 was less than 10 nM.
For `O=c1c2cc(-c3ccc(C(F)(F)F)cc3)nc(-c3cccnc3)c2ncn1[C@@H]1CCCC[C@@H]1O` [Example 16, 3-((1R,2S)-2-hydroxycyclohexyl)-8-(pyridin-3-yl)-6-(4-(trifluoromethyl)phenyl)pyrido[3,4-d]pyrimidin-4(3H)-one], the results for the inhibition at 0.123 µM on AhR [1] (setting [5]) and at AhR [1] (setting [9]) were 99.6% and 100%, respectively. Moreover, the IC50 at AhR [3] (setting [8]) is less than 10 nM.
Consider `CCC(CO)n1cnc2c(-c3cccnc3)nc(-c3ccc(Cl)cc3)cc2c1=O` (stereo not drawn) [Example 51, 6-(4-chlorophenyl)-3-(1-hydroxybutan-2-yl)-8-(pyridin-3-yl)pyrido[3,4-d]pyrimidin-4(3H)-one], for which the inhibition at 0.123 µM on AhR [1] (setting [5]) amounted to 99.2%. Moreover, at AhR [2] (setting [6]), the concentration for a half-maximal effect (EC50) is 701 nM. In addition, the IC50 at AhR [3] (setting [10]) was less than 10 nM.
Consider `O=c1c2cc(-c3ccc(C(F)(F)F)cc3)nc(-c3cccnc3)c2ncn1CC(O)CO` (stereo not drawn) [Example 66, 3-(2,3-dihydroxypropyl)-8-(pyridin-3-yl)-6-(4-(trifluoromethyl)phenyl)pyrido[3,4-d]pyrimidin-4(3H)-one], for which the inhibition at 0.123 µM on AhR [1] (setting [5]) is 100%. Further, the figures for the 50% inhibitory concentration (IC50) at AhR [3] (setting [8]) and against AhR [4] were less than 10 nM and 10 to 100 nM, respectively.
`Cn1cc(-c2nc(-c3ccc(C(F)(F)F)cc3)cc3c(=O)n(C4CCCC(O)C4)cnc23)cn1` (stereo not drawn) [Example 1, 3-(3-hydroxycyclohexyl)-8-(1-methyl-1H-pyrazol-4-yl)-6-(4-(trifluoromethyl)phenyl)pyrido[3,4-d]pyrimidin-4(3H)-one]: the EC50 at AhR [2] (setting [6]) is more than 30000 nM; on AhR [2] (setting [7]) it was more than 10000 nM. The IC50 at AhR [3] (setting [10]) is less than 10 nM.
`O=c1c2cc(-c3ccc(Cl)nc3)nc(-c3cccnc3)c2ncn1[C@@H]1CC[C@H](O)C1` [Example 71, 6-(6-chloropyridin-3-yl)-3-((1R,3S)-3-hydroxycyclopentyl)-8-(pyridin-3-yl)pyrido[3,4-d]pyrimidin-4(3H)-one]: the half-maximal effective concentration (EC50) on AhR [2] (setting [6]) is more than 30000 nM; at AhR [2] (setting [7]), more than 10000 nM. The half-inhibitory concentration (IC50) at AhR [3] (setting [8]) was 10 to 100 nM.
For the molecule `CC(CO)n1cnc2c(-c3cnn(C)c3)nc(-c3cnn(C)c3)cc2c1=O` (stereo not drawn) [Example 3, 3-(1-hydroxypropan-2-yl)-6,8-bis(1-methyl-1H-pyrazol-4-yl)pyrido[3,4-d]pyrimidin-4(3H)-one], the EC50 on AhR [2] (setting [6]) is more than 30000 nM; at AhR [2] (setting [7]), more than 10000 nM. For the same molecule, the IC50 on AhR [3] (setting [10]) was more than 1000 nM.
